Results from patent publication US5663331A, “Cephalosporin compounds” (Il-Dong Pharm. Co., Ltd., priority 1992, dated 1997).
Converted amounts (≈) assume the structure as drawn.

Columns and labels:
Format in all cases: cell-based
[1] = test system: Klebsiella pneumoniae ATCC 10031; assay: MIC, two-fold dilution method, Klebsiella pneumoniae ATCC 10031; details: 10^6 CFU per ml, 37° C., 18 to 20 hours; for MIC: ATCC10031, Muller Hinton Broth, read-out: Antibacterial Activity (MIC); for Antibacterial Activity (MIC): Muller Hinton Broth
Description: (§1) In order to illustrate the usefulness of the invented compounds, the minimal inhibitory concentrations-(MIC) thereof against standard strains were determined and compared with Cefotaxime, a known compound. Also, the in vitro antibacterial activity was determined by a two-fold dilution method as described below: That is, the two-fold serial dilutions of the compound were made and dispersed in Muller Hinton Broth medium. Standard test strain which had the 10^6 CFU per ml was inoculated on the medium, and was incubated at 37° C. for 18 to 20 hours.

[2] = test system: Bacillus subtilis ATCC 6633; assay: MIC, two-fold dilution method, Bacillus subtilis ATCC 6633; details: 10^6 CFU per ml, 37° C., 18 to 20 hours; for MIC: ATCC6633, Muller Hinton Broth, read-out: Antibacterial Activity (MIC); for Antibacterial Activity (MIC): Muller Hinton Broth
Description: as §1

[3] = test system: Streptococcus faecalis ATCC 10541; assay: MIC, two-fold dilution method, Streptococcus faecalis ATCC 10541; details: 10^6 CFU per ml, 37° C., 18 to 20 hours; for MIC: Enterococcus faecalis, ATCC10541, Muller Hinton Broth, read-out: Antibacterial Activity (MIC); for Antibacterial Activity (MIC): Muller Hinton Broth
Description: as §1

[4] = test system: Esherichia coli ATCC 25922; assay: MIC, two-fold dilution method, Esherichia coli ATCC 25922; details: Muller Hinton Broth, 10^6 CFU per ml, 37° C., 18 to 20 hours; for MIC: read-out: Antibacterial Activity (MIC)
Description: as §1

[5] = test system: Staphylococcus epidermidis ATCC 12228; assay: MIC, two-fold dilution method, Staphylococcus epidermidis ATCC 12228; details: 10^6 CFU per ml, 37° C., 18 to 20 hours; for MIC: ATCC12228, Muller Hinton Broth, read-out: Antibacterial Activity (MIC); for Antibacterial Activity (MIC): Muller Hinton Broth
Description: as §1

[6] = test system: Staphylococcus aureus ATCC 65389; assay: MIC, two-fold dilution method, Staphylococcus aureus ATCC 65389; details: 10^6 CFU per ml, 37° C., 18 to 20 hours; for MIC: ATCC65389, Muller Hinton Broth, read-out: Antibacterial Activity (MIC); for Antibacterial Activity (MIC): Muller Hinton Broth
Description: as §1

[7] = test system: Pseudomonas aeurginosa NCTC 10490; assay: MIC, two-fold dilution method, Pseudomonas aeurginosa NCTC 10490; details: 10^6 CFU per ml, 37° C., 18 to 20 hours; for MIC: NCTC10490, Muller Hinton Broth, read-out: Antibacterial Activity (MIC); for Antibacterial Activity (MIC): Muller Hinton Broth
Description: as §1

SMILES	MIC [1] [µg/mL]	MIC [2] [µg/mL]	MIC [3] [µg/mL]	MIC [4] [µg/mL]	MIC [5] [µg/mL]	MIC [6] [µg/mL]	MIC [7] [µg/mL]	Antibacterial Activity (MIC) [1] [µg/mL]	Antibacterial Activity (MIC) [2] [µg/mL]	Antibacterial Activity (MIC) [3] [µg/mL]	Antibacterial Activity (MIC) [4] [µg/mL]	Antibacterial Activity (MIC) [5] [µg/mL]	Antibacterial Activity (MIC) [6] [µg/mL]	Antibacterial Activity (MIC) [7] [µg/mL]
CO/N=C(\C(=O)N[C@@H]1C(=O)N2C(C(=O)O)=C(COC(C)=O)CS[C@H]12)c1csc(N)n1 [CTX, Cefotaxime, reference compound]	0.39 (≈ 0.856 µM)	0.2 (≈ 0.439 µM)	0.39 (≈ 0.856 µM)	0.78 (≈ 1.71 µM)	0.78 (≈ 1.71 µM)	0.78 (≈ 1.71 µM)	1.56 (≈ 3.43 µM)	–	–	–	–	–	–	–
CO/N=C(\C(=O)NC1C(=O)N2C(C(=O)[O-])=C(CSc3cc[n+](C)c4cc(N5CCNCC5)c(F)cc34)CSC12)c1csc(N)n1 (centres unmarked) [Compound I-1, 7-[(Z)-2-(2-aminothiazol-4-yl)-2-(methoxyimino)acetamide]-3-(1-methyl-6-fluoro-7-piperazinylquinolinium-4-yl)thiomethyl-3-cephem-4-carboxylate]	0.2 (≈ 0.297 µM)	0.2 (≈ 0.297 µM)	0.05 (≈ 0.0743 µM)	0.78 (≈ 1.16 µM)	0.1 (≈ 0.149 µM)	0.2 (≈ 0.297 µM)	1.56 (≈ 2.32 µM)	–	–	–	–	–	–	–
CO/N=C(\C(=O)NC1C(=O)N2C(C(=O)[O-])=C(CSc3cc[n+](C)c4cc(N5CCN(C)CC5)c(F)cc34)CSC12)c1csc(N)n1 (centres unmarked) [Compound I-2, 7-[(Z)-2-(2-aminothiazol-4-yl)-2-(methoxyimino)acetamido]-3-[1-methyl-6-fluoro-7-(N-methylpiperazinyl)quinolinium-4-yl]thiomethyl-3-cephem-4-carboxylate]	0.39 (≈ 0.568 µM)	0.39 (≈ 0.568 µM)	0.39 (≈ 0.568 µM)	12.5 (≈ 18.2 µM)	0.78 (≈ 1.14 µM)	1.56 (≈ 2.27 µM)	3.13 (≈ 4.56 µM)	–	–	–	–	–	–	–
CCN1CCN(c2cc3c(cc2F)c(SCC2=C(C(=O)[O-])N4C(=O)C(NC(=O)/C(=N\OC)c5csc(N)n5)C4SC2)cc[n+]3C)CC1 (centres unmarked) [Compound I-3, 7-[(Z)-2-(2-aminothiazol-4-yl)-2-(methoxyimino)acetamido]-3-[1-methyl-6-fluoro-7-(1-ethylpiperazinyl)quinolinium-4-yl]thiomethyl-3-cephem-4-carboxylate]	0.1 (≈ 0.143 µM)	0.2 (≈ 0.285 µM)	0.025 (≈ 0.0357 µM)	0.78 (≈ 1.11 µM)	0.1 (≈ 0.143 µM)	0.05 (≈ 0.0713 µM)	0.78 (≈ 1.11 µM)	–	–	–	–	–	–	–
CO/N=C(\C(=O)NC1C(=O)N2C(C(=O)[O-])=C(CSc3cc[n+](C4CC4)c4cc(N5CCNCC5)c(F)cc34)CS[C@H]12)c1csc(N)n1 (some centres unmarked) [Compound I-5, 7-[(Z)-2-(2-aminothiazol-4-yl)-2-(methoxyimino)acetamido]-3-(1-cyclopropyl-6-fluoro-7-piperazinylquinolinium-4-yl)thiomethyl-3-cephem-4-carboxylate]	0.1 (≈ 0.143 µM)	0.39 (≈ 0.558 µM)	0.39 (≈ 0.558 µM)	12.5 (≈ 17.9 µM)	0.78 (≈ 1.12 µM)	1.56 (≈ 2.23 µM)	3.13 (≈ 4.48 µM)	–	–	–	–	–	–	–
CO/N=C(\C(=O)NC1C(=O)N2C(C(=O)[O-])=C(CSc3cc[n+](C)c4cc(-n5cnc(C)c5)c(F)cc34)CSC12)c1csc(N)n1 (centres unmarked) [Compound I-18, 7-[(Z)-2-(2-aminothiazol-4-yl)-2-(methoxyimino)acetamido]-3-[1-methyl-6-fluoro-7-(4-methylimidazolyl)quinolinium-4-yl]thiomethyl-3-cephem-4-carboxylate]	–	–	–	–	–	–	–	–	0.1	0.2	–	0.2	0.2	1.56
C=CCO/N=C(\C(=O)NC1C(=O)N2C(C(=O)[O-])=C(CSc3cc[n+](C4CC4)c4cc(N5CCN(CC)CC5)c(F)cc34)CSC12)c1csc(N)n1 (centres unmarked) [Compound I-27]	0.39 (≈ 0.518 µM)	0.2 (≈ 0.266 µM)	0.2 (≈ 0.266 µM)	–	0.2 (≈ 0.266 µM)	0.2 (≈ 0.266 µM)	0.78 (≈ 1.04 µM)	–	–	–	–	–	–	–
CC[n+]1ccc(SCC2=C(C(=O)[O-])N3C(=O)C(NC(=O)/C(=N\OC(C)(C)C(=O)O)c4csc(N)n4)[C@H]3SC2)c2cc(F)c(N3CCNCC3)cc21 (some centres unmarked) [Compound I-53, 7-[(Z)-2-(2-aminothiazol-4-yl)-2-(2-carboxyprop-2-oxyimino)acetamido]-3-(1-ethyl-6-fluoro-7-piperazinylquinolinium-4-yl)thiomethyl-3-cephem-4-carboxylate]	–	–	–	–	–	–	–	1.56	0.39	0.39	–	1.56	3.13	1.56
CC[n+]1ccc(SCC2=C(C(=O)[O-])N3C(=O)C(NC(=O)/C(=N\OC(C)(C)C(=O)O)c4csc(N)n4)[C@H]3SC2)c2cc(F)c(-n3ccnc3)cc21 (some centres unmarked) [Compound I-65, 7-[(Z)-2-(2-aminothiazol-4-yl)-2-(2-carboxyprop-2-oxyimino)acetamido]-3-(1-ethyl-6-fluoro-7-imidazolylquinolinium-4-yl)thiomethyl-3-cephem-4-carboxylate]	–	–	–	–	–	–	–	1.56	0.39	0.39	–	1.56	1.56	1.56

Second part, the compound after the results:

MIC [1] [µg/mL]	MIC [2] [µg/mL]	MIC [3] [µg/mL]	MIC [4] [µg/mL]	MIC [5] [µg/mL]	MIC [6] [µg/mL]	MIC [7] [µg/mL]	Antibacterial Activity (MIC) [1] [µg/mL]	Antibacterial Activity (MIC) [2] [µg/mL]	Antibacterial Activity (MIC) [3] [µg/mL]	Antibacterial Activity (MIC) [4] [µg/mL]	Antibacterial Activity (MIC) [5] [µg/mL]	Antibacterial Activity (MIC) [6] [µg/mL]	Antibacterial Activity (MIC) [7] [µg/mL]	SMILES
–	–	–	–	–	–	–	0.1	0.1	0.05	0.78	0.2	0.1	0.78	CO/N=C(\C(=O)NC1C(=O)N2C(C(=O)[O-])=C(CSc3cc[n+](C)c4cc(N5CCNCC5C)c(F)cc34)CSC12)c1csc(N)n1 (centres unmarked) [Compound I-4, 7-[(Z)-2-(2-aminothiazol-4-yl)-2-(methoxyimino)acetamido]-3-(1-methyl-6-fluoro-7-(2-methyl)piperazinylquinolinium-4-yl]thiomethyl-3-cephem-4-carboxylate]
–	–	–	–	–	–	–	0.78	0.39	0.2	–	0.2	0.2	1.56	C=CCO/N=C(\C(=O)NC1C(=O)N2C(C(=O)[O-])=C(CSc3cc[n+](C4CC4)c4cc(N5CCNCC5C)c(F)cc34)CS[C@H]12)c1csc(N)n1 (some centres unmarked) [Compound I-28, 7-[(Z)-2-(2-aminothiazol-4-yl)-2-(allyloxyimino)acetamido]-3-[1-cyclopropyl-6-fluoro-7-(2-methylpiperazinyl)quinolinium-4-yl]thiomethyl-3-cephem-4-carboxylate]
0.78 (≈ 1.12 µM)	0.2 (≈ 0.287 µM)	0.2 (≈ 0.287 µM)	–	0.78 (≈ 1.12 µM)	0.39 (≈ 0.56 µM)	0.2 (≈ 0.287 µM)	–	–	–	–	–	–	–	C#CCO/N=C(\C(=O)NC1C(=O)N2C(C(=O)[O-])=C(CSc3cc[n+](C)c4cc(N5CCNCC5)c(F)cc34)CS[C@H]12)c1csc(N)n1 (some centres unmarked) [Compound I-37, 7-[(Z)-2-(2-aminothiazol-4-yl)-2-(propargyloxyimino)acetamido]-3-(1-methyl-6-fluoro-7-piperazinylquinolinium-4-yl)thiomethyl-3-cephem-4-carboxylate]
3.13 (≈ 4.4 µM)	0.78 (≈ 1.1 µM)	0.2 (≈ 0.281 µM)	–	0.39 (≈ 0.549 µM)	0.78 (≈ 1.1 µM)	0.78 (≈ 1.1 µM)	–	–	–	–	–	–	–	C#CCO/N=C(\C(=O)NC1C(=O)N2C(C(=O)[O-])=C(CSc3cc[n+](C)c4cc(N5CCN(C)CC5)c(F)cc34)CSC12)c1csc(N)n1 (centres unmarked) [Compound I-38, 7-[(Z)-2-(2-aminothiazol-4-yl)-2-(propargyloxyimino)acetamido]-3-[1-methyl-6-fluoro-7-(N-methylpiperazinyl)quinolinium-4-yl]thiomethyl-3-cephem-4-carboxylate]
0.78 (≈ 1.08 µM)	0.2 (≈ 0.276 µM)	0.2 (≈ 0.276 µM)	–	0.2 (≈ 0.276 µM)	0.39 (≈ 0.538 µM)	0.2 (≈ 0.276 µM)	–	–	–	–	–	–	–	C#CCO/N=C(\C(=O)NC1C(=O)N2C(C(=O)[O-])=C(CSc3cc[n+](C)c4cc(N5CCN(CC)CC5)c(F)cc34)CSC12)c1csc(N)n1 (centres unmarked) [Compound I-39]
–	–	–	–	–	–	–	0.78	0.2	0.2	–	0.1	0.39	0.2	C#CCO/N=C(\C(=O)NC1C(=O)N2C(C(=O)[O-])=C(CSc3cc[n+](C)c4cc(N5CCNCC5C)c(F)cc34)CS[C@H]12)c1csc(N)n1 (some centres unmarked) [Compound I-40, 7-[(Z)-2-(2-aminothiazol-4-yl)-2-(propargyloxyimino)acetamido]-3-[1-methyl-6-fluoro-7-(2-methylpiperazinyl)quinolinium-4-yl]thiomethyl-3-cephem-4-carboxylate]
